Reference: article PMC5964033 (Journal of inorganic biochemistry, 2018)
“And” between values parts separate entries of the source, which are not always exact repeats. Equal values may be shown once. “Also recorded” adds a separate entry of the source. Read-outs that look alike come from different tables or passages of the source.

B1: CYP2J2 (Homo sapiens) (protein)
chain: MLAAMGSLAAALWAVVHPRTLLLGTVAFLLAADFLKRRRPKNYPPGPWRLPFLGNFFLVDFEQSHLEVQLFVKKYGNLFSLELGDISAVLITGLPLIKEALIHMDQNFGNRPVTPMREHIFKKNGLIMSSGQAWKEQRRFTLTALRNFGLGKKSLEERIQEEAQHLTEAIKEENGQPFDPHFKINNAVSNIICSITFGERFEYQDSWFQQLLKLLDEVTYLEASKTCQLYNVFPWIMKFLPGPHQTLFSNWKKLKLFVSHMIDKHRKDWNPAETRDFIDAYLKEMSKHTGNPTSSFHEENLICSTLDLFFAGTETTSTTLRWALLYMALYPEIQEKVQAEIDRVIGQGQQPSTAARESMPYTNAVIHEVQRMGNIIPLNVPREVTVDTTLAGYHLPKGTMILTNLTALHRDPTEWATPDTFNPDHFLENGQFKKREAFMPFSIGKRACLGEQLARTELFIFFTSLMQKFTFRPPNNEKLSLKFRMGITISPVSHRLCAVPQV

Tests used:
CYP2J2 [1] = molecular target: T1, CYP2J2 (Homo sapiens, UniProt P51589); format: in vitro ADME
T1 sequence (P51589 1-502): B1 chain

CYP2J2 [2] = molecular target: T1, CYP2J2; conditions: at saturating concentrations, CYP2J2-NDs
CYP2J2 [3] = molecular target: T1, CYP2J2; assay: Identification of pCB metabolites formed by CYP2J2; format: in vitro ADME; conditions: major mono-oxygenated product(s) of CYP2J2 metabolism
CYP2J2 [4] = molecular target: T1, CYP2J2; assay: Inhibition of CYP2J2-mediated AEA metabolism by pCBs; format: biochemical; conditions: for Type of AEA Metabolism Inhibition / Ki: 30 µM pCB; for Type of AEA Metabolism Inhibition: model of inhibition; for Ki: CYP2J2-ND/CPR; for apparent Vmax of AEA metabolism, % of the uninhibited enzyme: in the presence of 30 µM pCB
CYP2J2 [5] = molecular target: T1, CYP2J2; conditions: formation of mono-oxygenated product; for Vmax: 5–60 µM pCB, 30 min, 37°C
CYP2J2 [6] = molecular target: T1, CYP2J2; conditions: directly from Soret titration or through inhibition of ebastine binding
humans = conditions: cited from earlier work
other animal models = conditions: cited from earlier work
Rhesus monkeys = conditions: cited from earlier work
[7] = system: fatty acid amide hydrolase (FAAH); conditions: cited from earlier work
CYP2J2 [8] = molecular target: T1, CYP2J2; assay: biochemical
not read [9] = substrate: CCCCC/C=C\C/C=C\C/C=C\C/C=C\CCCC(=O)NCCO; assay: not read; format: in vitro ADME; conditions: other: total EET-EAs formed, CYP2J2-ND/CPR; pH 7.4
not read [10] = substrate: CCCCCc1cc(O)c(C/C=C(\C)CCC=C(C)C)c(O)c1; assay: not read; conditions: other: formation of mono-oxygenated product; pH 7.4; 37.0 °C
[11] = read-out: Ki, AEA Metabolism Inhibition

Molecule	high-spin shift (CYP2J2 [2])	Metabolite(s) (CYP2J2 [3])	Type of AEA Metabolism Inhibition (CYP2J2 [4])	Ki (CYP2J2 [4]; Ki, AEA Metabolism Inhibition) [µM]	apparent Vmax of AEA metabolism, % of the uninhibited enzyme (CYP2J2 [4])	Vmax (CYP2J2 [5])	further results
CCCCC/C=C\C/C=C\C/C=C\C/C=C\CCCC(=O)NCCO [AEA, anandamide]	did not produce a significant change in the high-spin content	–	–	–	–	–	Metabolite(s) (CYP2J2 [1]; AEA metabolism by CYP2J2-NDs): EET-EAs; Vmax (CYP2J2 [1]; total EET-EAs formed, CYP2J2-ND/CPR): 135 ± 14.0 pmol · min^−1 · nmolCYP2J2^−1 and 135 ± 14 pmol · min^−1 · nmolCYP2J2^−1
CCCCCc1cc(O)c2c(c1)OC(C)(CCC=C(C)C)C=C2 (stereo not drawn) [CBC, cannabichromene]	did not produce a significant change in the high-spin content	-1”-OH	Noncompetitive	21.1 ± 1.4	20–45%	371 ± 134 pmol · min^−1 · nmolCYP2J2^−1	–
CCCCCc1cc(O)c2c(c1)OC(C)(C)[C@@H]1CCC(C)=C[C@@H]21 [Δ9-THC, Δ9-tetrahydrocannabinol, reference compound]	did not produce a significant change in the high-spin content	-1’-OH	Noncompetitive	–	20% and 20–45%	211 ± 28 pmol · min^−1 · nmolCYP2J2^−1	Ki (CYP2J2 [4]; [11]): 9.86 ± 0.45 µM; Km (CYP2J2 [5]): 11.9 ± 4.8 µM; binding affinity (CYP2J2 [6]): weakest; effect on heart rate in humans (humans): induces tachycardia; effect on heart rate in other animal models (other animal models): induces bradycardia
CCCCC(O)c1cc(O)c2c(c1)OC(C)(C)C1CC=C(C)CC21 (stereo not drawn) [Δ8-THC-1’-OH]	–	–	–	–	–	–	induction of behavioral changes associated with cannabis use (Rhesus monkeys): least effective
C=C(C)[C@@H]1CCC(C)=C[C@H]1c1c(O)cc(CCCCC)cc1O [CBD, cannabidiol, reference compound]	32%	-7-OH + -1”-OH	Noncompetitive	16.9 ± 1.1	20–45%	372 ± 100 pmol · min^−1 · nmolCYP2J2^−1	inhibition of FAAH [7]: weakly inhibited; Kd (CYP2J2 [8]): 11.5 ± 3 µM
CCCCCc1cc(O)c(C/C=C(\C)CCC=C(C)C)c(O)c1 [CBG, cannabigerol]	48%	-1”-OH	competitively; also recorded: Competitive	10.8 ± 1.4	–	123 ± 14 pmol · min^−1 · nmolCYP2J2^−1	Kd (CYP2J2 [8]): 11.1 ± 1.2 µM
CCCCCc1cc(O)c2c(c1)OC(C)(C)[C@@H]1CC=C(C)C[C@@H]21 [Δ8-THC, Δ8-tetrahydrocannabinol]	did not produce a significant change in the high-spin content	-1’-OH	Noncompetitive	–	20–45%	80.9 ± 14.3 pmol · min^−1 · nmolCYP2J2^−1	Ki (CYP2J2 [4]; [11]): 20.2 ± 1.9 µM; Km (CYP2J2 [5]): 8.52 ± 5.3 µM
CCCCCc1cc(O)c2c(c1)OC(C)(C)c1ccc(C)cc1-2 [CBN, cannabinol]	38%	-1’-OH or -11-OH	Noncompetitive	19.4 ± 2	20–45%	–	–
B1	–	–	–	–	–	–	Km (not read [9]): 30.9 ± 7.3 µM; Km (not read [10]): 8.27 ± 3.24 µM
